Results taken from patent US9969617B2, “Material system containing endoperoxide with adaption of decomposition, and applications” (priority 2009, dated 2018).

Experiments:
[1] = system: cancer cells; experiment: killing of cancer cells, cytostatic effect confirmed using the crystal violet test; assay type: cell-based; conditions: endoperoxide in liposomes
Excerpt: A further molecule 22 forming endoperoxide has an additional hydroxyl group which with the cage wall can form hydrogen bridges (preferably in PVB nanoparticles, in PVB films or ethyl cellulose nanoparticles), which likewise causes an increase in the decomposition times.

[2] = PVB matrix, 37° C.

Compound	killing of the cancer cells [1]	decomposition time of curve 27, factor longer than DMN in liquids ([2]; after renewed endoperoxide formation, slow component (curve 27)) [factor]	half-life from curve 24 greater than that for DMN in organic solvent ([2]; curve 24 versus DMN in organic solvent)	decomposition time from curve 25, factor greater ([2]; first decomposition, slow component (curve 25), compared with DMN in organic solvent) [factor]
CC12C=CC(C)(OO1)c1ccccc12 [DMN endoperoxide, 1,4-dimethylnaphthalene endoperoxide]	not	> 30	approximately 30%	~6
Cc1cccc2c1C1(C)C=CC2(C)OO1 (centres unmarked) [TMN endoperoxide]	killing of the cancer cells was ascertained	–	–	–
